Test results: US20130288917A1, “Rapid High Resolution, High Throughput RNA Structure, RNA-Macromolecular Interaction, and RNA-Small Molecule Interaction Mapping” (The Board of Trustees of the Leland Stanford Junior …, priority 2010, published 2013)
Entries after “also recorded” stand apart in the source; their conditions may differ.

System: HCV IRES
Assay: sf-SHAPE structure mapping of the HCV IRES in the presence of miRNA
Type: binding, Hepatitis C virus
Text: First, the intricacies (and cost) introduced by using multiple fluorophores have been eliminated by using a single fluorophore-labelled primer and multiple capillaries, rather than using multiple fluorophores sets in each capillary. We have therefore named this technique, single fluorophore SHAPE (sf-SHAPE). sf-SHAPE is a fragment analysis method that uses an internal standard to allow data from one capillary to be directly compared to data from another, with high precision. Commercial software (Peak Scanner, ABI), as well as custom-designed software (CAFA)11, which assign fragment lengths to peaks using an internal standard and integrates each peak area, are freely available.
We have designed a program entitled Fast Analysis of SHAPE Traces (FAST), which then takes the output from Peak Scanner and automatically (a) corrects for signal decay; (b) corrects for differences in signal strength among samples; and (c) assigns the determined SHAPE reactivity to the appropriate nucleotide, using a ddNTP sequencing ladder and the local southern method. […] FAST is able to generate SHAPE reactivity data from electrophoretic traces in as little as 5-10 minutes, as opposed to hours, with high experimental reproducibility (R2=0.93).
We next explored the effect of miR-122 on the HCV IRES structure. In this experiment, the HCV IRES structure was determined in the presence of miR-122 as well as a control miRNA, miR-124. The IRES structure was also determined in the presence of a mutant miR-122, in which the seed region of miR-122 was retained (NT 1-9), while the remainder of the miRNA was replaced by the end of miR-124 [miR-122(seed) with miR-124(tail)].
SHAPE performed as previously described by Mortimer & Weeks (2009) Nature protocols 4, 1413-1421; and Wilkinson et al. (2006) Nature protocols 1, 1610-1616 except: RNA purification after acylation and removal of miRNA before RT by RNA C&C (Zymoresearch); DNA purification by size exclusion (Sephadex G-50 resin); 1 pmol RNA used in sequences reactions; fragment analysis protocol (GeneScan/ROX 500 standard/50 cm capillary/POP6/voltage 15 kV/T=60° C./injection time=15 s (3100 ABI); 6-FAM labelled primers), and PeakScanner/FAST analysis. IRES folding29, (100 mM NaCl; 2.5 mM MgCl), alamar blue assay and qRT-PCR were performed as previously described30. Luciferase assay performed as described30, except co-transfection (HCV/LNA) was by lipofectamine 2000 (3.5×10^5 huh 7.5 cells/well), with translation measured at 4 hours. LNAs purchased from Exiqon (Scramble-miR/hsa-miR-122 kd2). Sequence logo: RNA graphics were drawn using RNA Viz. P-values (two-tailed unpaired t-test) calculated by InStat 3 (Graphpad).

miR-122: liver-expressed miRNA, UGGAGUGUGA CAAUGGUGUUUG (UGGAGUGUGACAAUGGUGUUUG)
effect on IRES structure (SHAPE reactivity) (HCV IRES with versus without miRNA): induced a number of changes
binding at NTs 32-37 (outside the complementary seed region): results in binding
binding to the S2 target of the IRES (NT 38-42) (seed site): bound
flexibility of the S2 target site (upon addition of miRNA, HCV nucleotides 32-42): significant reduction in flexibility
flexibility / reactivity of domain IV (AUG start site) (upon addition of miRNA, nucleotides 335, 336, 351): becomes more flexible; also recorded: significantly increased flexibility
